Results on two molecules are retold here after paper PMC4022186 (Biochemistry, 2012).

Experiment [1] has as its target T1, E. coli QueD (CPH4 synthase) (Escherichia coli, UniProt P65870). Kind of experiment: preparative conversion to [7R-D]-CPH4. The experiment is classed as biochemical. The following applies: 5 μM QueD, 20 mM PIPES pH 7.4, 10 mM DTT, 18 h, H2O.
In experiment [2] the target is T1, E. coli QueD (CPH4 synthase). Nature of the experiment: preparative conversion to [[…]-2H]-CPH4. Format: biochemical. The following applies: 5 mM sepiapterin, 15 μM QueD, 20 mM PIPES, 99.9% D2O, 20 h.

T1 sequence (P65870 whole entry): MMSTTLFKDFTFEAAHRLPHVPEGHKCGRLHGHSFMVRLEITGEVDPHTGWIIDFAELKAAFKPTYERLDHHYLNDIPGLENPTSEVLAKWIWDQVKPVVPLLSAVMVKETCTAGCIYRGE

For `Nc1nc2c(c(=O)[nH]1)N=C([C@H](O)[C@H](O)COP(=O)(O)OP(=O)(O)OP(=O)(O)O)CN2` [H2NTP], the “preparative conversion to [7R-D]-CPH4; FT-ICR MS of product” value in experiment [1] is given as “The resulting H2NTP was converted to CPH4 in a reaction mixture”.
Regarding `C[C@H](O)C(=O)C1=Nc2c(nc(N)[nH]c2=O)NC1` [sepiapterin], in experiment [2], the “preparative conversion to [6-2H]-CPH4; FT-ICR MS of product” value is given as “this reaction was used to prepare CPH4 containing deuterium at C-6”.
